Measured values from US9233086B2 (THE REGENTS OF THE UNIVERSITY OF MICHIGAN, priority 2010, dated 2016).
Where two headings read alike, the source gives them in different places. *1 amine or outer side, *2 acyl side, *3 side chain or, on linkers, in order; H or OH if unused. Where a SMILES comes first, the peptide text is derived from it. [ ]: non-standard residue; d: D form. The star is where a group is joined. Isobutyryl = CC(C)C(=O)*; Ac4c = NC1(C(=O)O)CCC1; PhAc = O=C(Cc1ccccc1)*; CO = O=C([*:1])[*:2]; NHBn = c1ccc(CN*)cc1; Butyryl = CCCC(=O)*; NHPh = c1ccc(N*)cc1; For = O=C*

Biological target: WDR5 (Homo sapiens (Human), UniProt P61964)
Experiment: FP based competitive binding assay to WDR5
Details: for Ki: read-out: Ki ± SD
Experimental: Another aspect of the invention is development of a Fluorescent Polarization (FP) based competitive binding assay. […] Next, the millipolarization (mP) values were measured at different time points in order to determine equilibrium duration and stability.
Accordingly, the optimal protein concentrations for the competitive assay was investigated.
All the FP based experiments were performed in MICROFLUOR® 2 Black, “U” Bottom, 96-well Microtiter Plates (ThermoSci.) and FP was measured as mP units in a microplate reader (Tecan Ultra) with excitation at 485 nm and emission at 530 nm. The Kd of the tracers and the IC50 value of the inhibitors were calculated using GraphPad Prism 4 software.
The binding affinities of the synthetic peptides shown in the study were measured using this competitive binding assay. A pre-incubated complex solution of WDR5Δ23 and the tracer in 120 μl assay buffer were added to dilutions of the test compound in 5 μl DMSO, giving final concentrations of WDR5Δ23 and the tracer of 4 nM and 0.6 nM, respectively. […] The plates were incubated with shaking at room temperature. The mP values were measured after five hours of incubation and Ki values were calculated using the equation described previously(31).

[1] = read-out: Binding Affinity to WDR5 (IC50 ± SD), Table 5 peptidomimetics
[2] = 4 nM WDR5Δ23, 0.6 nM 10mer-Thr-FAM tracer, read-out: IC50 ± SD

IC50 [1] [nM]	Molecule	further results
< 1000	CCC(CC)NC(=O)[C@H](CCCNC(=N)N)NC(=O)C(CC)(CC)NC(=O)C(C)C [Compound 11B]	
> 1000	CCC(CC)(NC(=O)c1ccccc1)C(=O)N[C@@H](CCCNC(=N)N)C(=O)NC1(C(N)=O)CCCC1 [Compound 10E]	
	Ac-ARAEVH-NH2 [Ac-6mer, Ac-ARAEVH-NH2]	IC50 (read-out: IC50 ± SD): 400 ± 100 nM; Ki: 90 ± 20 nM
< 1000	CC(=O)N[C@@H](C)C(=O)N[C@@H](CCCNC(=N)N)C(=O)N[C@@H](C)C(=O)NC1CCCCC1 [Compound 7C]	
< 1000	CC(=O)N[C@H](C(=O)N[C@@H](CCCNC(=N)N)C(=O)NC1(C(N)=O)CCCC1)C(C)C [Compound 5C]	
	C[C@H](N)C(=O)N[C@@H](CCCNC(=N)N)C(=O)N[C@H](C(=O)N[C@@H](CCCCN)C(=O)N[C@@H](CCC(N)=O)C(=O)N[C@H](C(=O)N[C@@H](C)C(=O)N[C@@H](CCCNC(=N)N)C(=O)N[C@@H](CCCCN)C(=O)N[C@@H](CO)C(N)=O)[C@@H](C)O)[C@@H](C)O [Compound H3-10mer, reference compound]	Ki (4 nM WDR5Δ23, 0.6 nM 10mer-Thr-FAM tracer, Ki calculated by equation of ref. 31, listed as wild-type H3 peptide): 15000 nM; IC50 [2]: 70000 ± 6000 nM
< 1000	CC(C)C(=O)N[C@@H](C)C(=O)N[C@@H](CCCNC(=N)N)C(=O)N[C@@H](C)C(N)=O [Compound 9A] (Isobutyryl-Ala-Arg-Ala-NH2)	
	Ac-ARAEVHL-NH2 [Ac-7mer, Ac-ARAEVHL-NH2]	fold decrease of binding affinity relative to Ac-10mer (ratio vs Ac-10mer): 10; IC50 (read-out: IC50 ± SD): 160 ± 30 nM; Ki: 30 ± 10 nM
< 1000	CC(=O)NC1(C(=O)N[C@@H](CCCNC(=N)N)C(=O)NC2(C(N)=O)CCCC2)CCC1 [Compound 6E]	
< 1000	CC(=O)N[C@@H](C)C(=O)N[C@@H](CCCNC(=N)N)C(=O)N[C@@H](C)C(=O)Nc1ccccc1 [Compound 7D] (Ac-Ala-Arg-Ala-NHPh)	
> 25000	C[C@H](NC(=O)[C@H](CCCNC(=N)N)NC(=O)[C@H](C)NC(=O)Cc1ccccc1)C(N)=O [Compound 9I] (PhAc-Ala-Arg-Ala-NH2)	
	C[C@H](NC(=O)[C@H](CCCNC(=N)N)NC(=O)[C@H](C)NC=O)C(N)=O [CHO-3mer, CHO-ARA-NH2] (For-Ala-Arg-Ala-NH2)	Ki (4 nM WDR5Δ23, 0.6 nM 10mer-Thr-FAM tracer, Ki calculated by equation of ref. 31): 3200 ± 300 nM; IC50 [2]: 14900 ± 1400 nM; times less potent than Ac-3mer (ratio vs Ac-3mer): 25
< 5000	CCCC(=O)N[C@@H](C)C(=O)N[C@@H](CCCNC(=N)N)C(=O)N[C@@H](C)C(N)=O [Compound 9C] (Butyryl-Ala-Arg-Ala-NH2)	
< 10000	CC(=O)N[C@H](C(=O)N[C@@H](CCCNC(=N)N)C(=O)NC1(C(N)=O)CCCCC1)C(C)C [Compound 5D]	
< 1000	CC(=O)N[C@@H](C)C(=O)N[C@@H](CCCNC(=N)N)C(=O)N[C@@H](C)C(=O)NC(c1ccccc1)c1ccccc1 [Compound 7F]	
< 1000	CC[C@H](NC(=O)[C@H](CCCNC(=N)N)NC(=O)C1(NC(C)=O)CCC1)C(=O)NCc1ccccc1 [Compound 8A]	
< 1000	CC(=O)NC1(C(=O)N[C@@H](CCCNC(=N)N)C(=O)N[C@H](C(N)=O)[C@@H](C)O)CCC1 [Compound 6F] (Ac-[Ac4c]-Arg-Thr-NH2)	
< 1000	CC(=O)N[C@@H](C)C(=O)N[C@@H](CCCNC(=N)N)C(=O)N[C@@H](C)C(=O)NCc1ccccc1 [Compound 7E] (Ac-Ala-Arg-Ala-NHBn)	
< 10000	CNC(=O)N[C@@H](C)C(=O)N[C@@H](CCCNC(=N)N)C(=O)N[C@@H](C)C(N)=O [Compound 9K] ({NHMe-CO}-Ala-Arg-Ala-NH2)	
< 10000	CCC(CC)(NC(=O)C(C)C)C(=O)N[C@@H](CCCNC(=N)N)C(=O)NC1CCCC1 [Compound 11I]	
	CC(=O)N[C@@H](C)C(=O)N[C@@H](CCCNC(=N)N)C(=O)N[C@H](C(=O)N[C@@H](CCCCN)C(=O)N[C@@H](CCC(N)=O)C(=O)N[C@H](C(=O)N[C@@H](C)C(=O)N[C@@H](CCCNC(=N)N)C(=O)N[C@@H](CCCCN)C(=O)N[C@@H](CO)C(N)=O)[C@@H](C)O)[C@@H](C)O [Ac-H3-10mer]	IC50 [2]: 6 ± 2 nM; fold increase of binding affinity to WDR5 on acetylation of the free amino group (vs corresponding unacetylated H3 peptide): greater than 10,000
> 10000	CC(=O)N[C@@H](C)C(=O)N[C@H](C(=O)N[C@@H](C)C(N)=O)C1CCN(C(=N)N)CC1 [Compound 2G]	
